# From patent publication US20090137565A1, “Method for treatment of movement disorders” (The Trustees of Columbia University in the City of New York, priority 2004, published 2009)
# What was measured:
# [1] = tested on: severe alcohol-responsive posthypoxic myoclonus; assay: Single-patient open-label dose-finding trial of GHB, blinded Unified Myoclonus Rating Scale (UMRS); type: in vivo, human; conditions: for UMRS I (Self Assessment) score: max 44, 0 gm score 33; for UMRS VIII (Severity) score: max 3, 0 gm score 2; for UMRS I (Global Disability) score / UMRS VI (MD Global Disab.) score: max 4, 0 gm score 3; for UMRS III (Stimulus-Sens.) score: max 17, 0 gm score 12; for UMRS V (Funct. Performance) score: max 20, 0 gm score 20; for UMRS II (Myoclonus @ Rest) score: max 128, 0 gm score 21; for UMRS IV (Action Myoclonus) score: max 160, 0 gm score 108; for UMRS VII (Neg. Myoclonus) score: present (1) or absent (0), 0 gm score 1
# Procedure: An open-label, dose-finding, blinded rating trial of GHB in a single patient with severe, debilitating alcohol-responsive posthypoxic myoclonus refractory to treatment with standard anti-myoclonic agents was conduced. […] Intensity and severity of myoclonus was measured using the Unified Myoclonus Rating Scale (UMRS), a non-invasive clinical rating scale. In addition, the patient was videotaped while the UMRS was performed, so that myoclonus could be scored by a blinded rater.
# Given the dramatic response to alcohol, a single-patient, open-label, dose-ranging trial to assess the tolerability and efficacy of GHB (Xyrem®, Orphan Medical, Inc.) as a treatment for alcohol-responsive posthypoxic myoclonus was designed, which was approved by The Columbia University Medical Center Institutional Review Board. After obtaining informed consent, they were videotaped during performance of the Unified Myoclonus Rating Scale (UMRS). The UMRS is a validated clinical rating instrument that measures the severity and intensity of myoclonus and has been used in other trials of anti-myoclonic agents. Frucht S. J., et al., Adv Neurology Vol. 89 Lippincott Williams and Wilkins, Philadelphia, 2002:361-376. The scale consists of eight sections: section I: patient questionnaire (11 items); section II: myoclonus at rest (frequency and amplitude, 16 items); section III: stimulus-sensitive myoclonus (17 items); section IV: severity of myoclonus with action (frequency and amplitude, 20 items); section V: performance on functional tests (5 items); section VI: physician rating of patient's global disability (1 item); section VII: presence of negative myoclonus (1 item); section VIII: severity of negative myoclonus (1 item). Each item is rated on a scale of 0 to 4, with higher scores assigned to myoclonus of greater severity or frequency. For section III stimulus-sensitivity is either present (1) or absent (0); section VII negative myoclonus either present (1) or absent (0); and section VIII negative myoclonus absent (0) to severe (3).
# All office visits and the UMRS scale were performed by the supervisory physician. The patient came to the office for five visits, each separated by two weeks (time 0, 2 weeks, 4 weeks, 6 weeks and 8 weeks). At each visit, the physician examined the patient, and inquired about any adverse events. The physician performed the UMRS while the patient was videotaped. Xyrem® was dispensed by the physician at each visit.
# At the initial visit the UMRS was performed and videotaped, 1 gm of GHB was administered by mouth, and they were monitored in the office for one hour. They then took 1 gm twice daily for two weeks, at which time they returned to the office. One hour after receiving 2 grams of GHB, the UMRS was performed and videotaped and for the next two weeks they took 2 grams twice daily. Two weeks later, the UMRS was performed and videotaped one hour after receiving 3 grams of GHB, and after two weeks of 3 grams twice daily, the same procedure was performed after receiving 4 grams in the office. After taking 4 grams twice daily for two weeks, they returned for UMRS videotaping, and the decision was made to continue the target dose of 4 gm twice daily.
# A movement disorder neurologist blinded to the trial design scored videotapes of the baseline visit, 2 gm, 3 gm, 4 gm (first) and 4 gm (second) visits in random order. The blinded rater was not provided with treatment scores of section I of the UMRS (patient self-assessment) in order to maintain the rating blind. Scores for each section were calculated as described previously. Frucht S. J., et al., Adv Neurology Vol. 89. Lippincott Williams and Wilkins, Philadelphia, 2002:361-376.
# [2] = tested on: alcohol-responsive myoclonus with dystonia; conditions: single patient, recently reported; cited from earlier work
structure (smiles),measurement,setting,value
"O=C([O-])CCCO.[Na+] [GHB, 4-hydroxybutanoic acid monosodium salt]",resting and stimulus-sensitive myoclonus,[1]; 2 gm twice daily,markedly improved
same,UMRS I (Self Assessment) score,"[1]; 2 gm, 1 h after oral dose",31
same,UMRS VIII (Severity) score,[1]; 2 gm,2
same,UMRS I (Global Disability) score,[1]; 2 gm,3
same,UMRS VI (MD Global Disab.) score,[1]; 2 gm,2
same,UMRS III (Stimulus-Sens.) score,[1]; 2 gm,5
same,UMRS V (Funct. Performance) score,[1]; 2 gm,10
same,UMRS II (Myoclonus @ Rest) score,[1]; 2 gm,8
same,UMRS IV (Action Myoclonus) score,[1]; 2 gm,70
same,UMRS VII (Neg. Myoclonus) score,[1]; 2 gm,1
same,resting and stimulus-sensitive myoclonus,[1]; 3 gm twice daily,virtually disappeared
same,UMRS VIII (Severity) score,[1]; 3 gm,2
same,UMRS I (Global Disability) score,[1]; 3 gm,2
same,UMRS VI (MD Global Disab.) score,[1]; 3 gm,2
same,UMRS III (Stimulus-Sens.) score,[1]; 3 gm,1
same,UMRS V (Funct. Performance) score,[1]; 3 gm,8
same,UMRS I (Self Assessment) score,[1]; 3 gm,25
same,UMRS II (Myoclonus @ Rest) score,[1]; 3 gm,3
same,UMRS IV (Action Myoclonus) score,[1]; 3 gm,64
same,UMRS VII (Neg. Myoclonus) score,[1]; 3 gm,1
same,UMRS VIII (Severity) score,[1]; 4 gm (2nd visit),2
same,UMRS I (Global Disability) score,[1]; 4 gm (2nd visit),2
same,UMRS VI (MD Global Disab.) score,[1]; 4 gm (2nd visit),2
same,UMRS III (Stimulus-Sens.) score,[1]; 4 gm (2nd visit),3
same,UMRS V (Funct. Performance) score,[1]; 4 gm (2nd visit),4
same,UMRS I (Self Assessment) score,[1]; 4 gm (2nd visit),15
same,UMRS II (Myoclonus @ Rest) score,[1]; 4 gm (2nd visit),1
same,UMRS IV (Action Myoclonus) score,[1]; 4 gm (2nd visit),58
same,UMRS VII (Neg. Myoclonus) score,[1]; 4 gm (2nd visit),1
same,UMRS VIII (Severity) score,[1]; 4 gm,2
same,UMRS I (Global Disability) score,[1]; 4 gm,2
same,UMRS VI (MD Global Disab.) score,[1]; 4 gm,2
same,UMRS III (Stimulus-Sens.) score,[1]; 4 gm,1
same,UMRS V (Funct. Performance) score,[1]; 4 gm,7
same,UMRS I (Self Assessment) score,[1]; 4 gm,18
same,UMRS II (Myoclonus @ Rest) score,[1]; 4 gm,1
same,UMRS IV (Action Myoclonus) score,[1]; 4 gm,53
same,UMRS VII (Neg. Myoclonus) score,[1]; 4 gm,1
same,myoclonus at rest and stimulus-sensitive myoclonus,"[1]; UMRS and blinded video rating, divided doses during the day",complete resolution
same,duration of benefit,[1]; after the first 2 gm dose,approximately 3 hours
same,time at which benefit peaked,[1]; after the first 2 gm dose,one
same,time to marked diminution of myoclonus at rest and stimulus-sensitivity,[1]; after the first 2 gm dose,≤ 20 min
same,change in clinical examination,[1]; after the initial 1 gm dose,Little difference
same,time of peak effect,[1]; each dose greater than or equal to 2 gm,one
same,"negative myoclonus, blinded videotape review","[1]; human, in vivo",did not confirm the examiner's impression that negative myoclonus improved
same,improvement of functional performance (section V),"[1]; writing, spiral copying, pouring, using a spoon",80%
same,effect on myoclonus,[2],improved myoclonus
